We go through ten compounds from patent US4608373A, “Cephem compounds” (Yamanouchi Pharmaceutical Co., Ltd., priority 1982, dated 1986).

≈ marks a conversion by molar mass, not a printed value. Counter-ions that a name gives are not always drawn. Like-named read-outs stand apart in the source and are kept apart here. Bounds are passed on as bounds.

Holding throughout (type): cell-based
The test system of one assay is Ps. aeruginosa IID 5142. Briefly: Antibacterial activity (MIC), Ps. aeruginosa IID 5142. The conditions noted are these: Pseudomonas aeruginosa, IID5142, read-out: MIC (minimum effective inhibitory concentration). An excerpt: (§1) Antibacterial activities (minimum effective inhibitory concentrations) of the compounds of formula I are shown in the following table in comparison with those of cefatazidime having the structure [drawing 5] and cefmenoxime having the structure [drawing 6]

The next assay deals with Staph. aureus Terashima. Briefly: Antibacterial activity (MIC), Staph. aureus Terashima. The conditions noted are these: Staphylococcus aureus, read-out: MIC (minimum effective inhibitory concentration).
Source text: as §1

Assay [1] deals with Kleb. pneumoniae ATCC 10031. Description: Antibacterial activity (MIC), Kleb. pneumoniae ATCC 10031. The conditions noted are these: Klebsiella pneumoniae, ATCC10031, read-out: MIC (minimum effective inhibitory concentration).
Source text: as §1

In a further assay the test system is Staph. aureus ATCC 6538P. Briefly: Antibacterial activity (MIC), Staph. aureus ATCC 6538P. The conditions noted are these: Staphylococcus aureus, ATCC6538P, read-out: MIC (minimum effective inhibitory concentration).
Source text: as §1

A further assay relates to E. coli Ebara. Briefly: Antibacterial activity (MIC), E. coli Ebara. The conditions noted are these: Escherichia coli, read-out: MIC (minimum effective inhibitory concentration).
Source text: as §1

Another assay has as its system Proteus morgani IID 602. Briefly: Antibacterial activity (MIC), Proteus morgani IID 602. The conditions noted are these: read-out: MIC (minimum effective inhibitory concentration).
Source text: as §1

Assay [2] relates to Ent. aerogenes ATCC 13048 (MS-1). Briefly: Antibacterial activity (MIC), Ent. aerogenes ATCC 13048 (MS-1). The conditions noted are these: Klebsiella aerogenes, ATCC13048, read-out: MIC (minimum effective inhibitory concentration).
Source text: as §1

The subject of another assay is Staph. aureus Smith. Description: Antibacterial activity (MIC), Staph. aureus Smith. The conditions noted are these: Staphylococcus aureus, read-out: MIC (minimum effective inhibitory concentration).
Source text: as §1

Assay [3] deals with Ps. aeruginosa NCTC 10490. Description: Antibacterial activity (MIC), Ps. aeruginosa NCTC 10490. The conditions noted are these: Pseudomonas aeruginosa, NCTC10490, read-out: MIC (minimum effective inhibitory concentration).
Source text: as §1

Another assay concerns Serr. marcescens IID 620. Description: Antibacterial activity (MIC), Serr. marcescens IID 620. The conditions noted are these: Serratia marcescens.
Source text: as §1

The test system of the next assay is Ent. cloacae V-8. Briefly: Antibacterial activity (MIC), Ent. cloacae V-8. The conditions noted are these: Enterobacter cloacae, V8, read-out: MIC (minimum effective inhibitory concentration).
Source text: as §1

Where [4] appears, read: IID620, Serr. marcescens IID 620, read-out: MIC (minimum effective inhibitory concentration).

`Nc1nc(CO/N=C(\C(=O)NC2C(=O)N3C(C(=O)[O-])=C(C[n+]4cccc(O)c4)CS[C@H]23)c2csc(N)n2)cs1` (stereo partly drawn) [Example 16, (Z)-7-{α-(2-amino-4-thiazolyl)-α-[(2-amino-4-thiazolyl)methoxyimino]acetamido}-3-(3-hydroxy-1-pyridiniomethyl]-3-cephem-4-carboxylate]: the MIC with Ps. aeruginosa IID 5142 is 25 µg/mL (≈ 42.5 µM); in the assay on Staph. aureus Terashima it was 6.25 µg/mL (≈ 10.6 µM); in assay [1], not above 0.2 µg/mL; in the assay on Staph. aureus ATCC 6538P it was 3.13 µg/mL (≈ 5.32 µM); in the assay on E. coli Ebara (E. coli Ebara), 1.56 µg/mL (≈ 2.65 µM); with Proteus morgani IID 602 (Proteus morgani IID 602), 0.78 µg/mL (≈ 1.33 µM). Further, the MIC in assay [2] is 3.13 µg/mL (≈ 5.32 µM); with Staph. aureus Smith it was 6.25 µg/mL (≈ 10.6 µM); in assay [3], 1.56 µg/mL (≈ 2.65 µM); with Serr. marcescens IID 620 (setting [4]), 0.39 µg/mL (≈ 0.663 µM); in the assay with Ent. cloacae V-8 it was 6.25 µg/mL (≈ 10.6 µM).
For `CC(C)(O/N=C(\C(=O)N[C@@H]1C(=O)N2C(C(=O)[O-])=C(C[n+]3ccccc3)CS[C@H]12)c1csc(N)n1)C(=O)O` [CD, Ceftazidime, reference compound], the MIC in the assay with Ps. aeruginosa IID 5142 was 1.56 µg/mL (≈ 2.85 µM); with Staph. aureus Terashima, 12.5 µg/mL (≈ 22.9 µM); in [1], not above 0.2 µg/mL; in the assay on Staph. aureus ATCC 6538P, 6.25 µg/mL (≈ 11.4 µM); with E. coli Ebara it was not above 0.2 µg/mL; with Proteus morgani IID 602, not above 0.2 µg/mL. The MIC was 0.39 µg/mL (≈ 0.714 µM) in assay [2]; 6.25 µg/mL (≈ 11.4 µM) in the assay on Staph. aureus Smith; 0.78 µg/mL (≈ 1.43 µM) in assay [3]; not above 0.2 µg/mL in the assay with Serr. marcescens IID 620 (IID620, read-out: MIC (minimum effective inhibitory concentration)); 1.56 µg/mL (≈ 2.85 µM) with Ent. cloacae V-8.
As for `Nc1nc(CO/N=C(\C(=O)NC2C(=O)N3C(C(=O)[O-])=C(C[n+]4cccc(CC(=O)O)c4)CSC23)c2csc(N)n2)cs1` (stereo not drawn) [Example 12, (Z)-7-{α-(2-amino-4-thiazolyl)-α-[(2-amino-4-thiazolyl)methoxyimino]acetamido}-3-(3-carboxylatemethyl-1-pyridiniomethyl)-3-cephem-4-carboxylate mono-sodium salt], the MIC in the assay with Ps. aeruginosa IID 5142 was 25 µg/mL; with Staph. aureus Terashima, 6.25 µg/mL; in assay [1], not above 0.2 µg/mL; with Staph. aureus ATCC 6538P, 3.13 µg/mL; with E. coli Ebara (E. coli Ebara), 1.56 µg/mL; in the assay on Proteus morgani IID 602 (Proteus morgani IID 602), 0.78 µg/mL. The MIC is 1.56 µg/mL in assay [2]; 3.13 µg/mL with Staph. aureus Smith; 1.56 µg/mL in [3]; not above 0.2 µg/mL in the assay with Serr. marcescens IID 620 (setting [4]); 3.13 µg/mL with Ent. cloacae V-8.
As to `Cn1nnnc1SCC1=C(C(=O)O)N2C(=O)C(NC(=O)/C(=N\OCc3csc(N)n3)c3csc(N)n3)C2SC1` (centres unmarked) [Example 6], the MIC was 12.5 µg/mL (≈ 20.5 µM) in the assay on Ps. aeruginosa IID 5142; 1.56 µg/mL (≈ 2.56 µM) with Staph. aureus Terashima; not above 0.2 µg/mL in assay [1]; 0.78 µg/mL (≈ 1.28 µM) in the assay with Staph. aureus ATCC 6538P; not above 0.2 µg/mL with E. coli Ebara (E. coli Ebara); 0.39 µg/mL (≈ 0.64 µM) with Proteus morgani IID 602 (Proteus morgani IID 602). Besides, the MIC in [2] is 1.56 µg/mL (≈ 2.56 µM); with Staph. aureus Smith it was 0.78 µg/mL (≈ 1.28 µM); in assay [3], not above 0.2 µg/mL; with Serr. marcescens IID 620 (setting [4]), 0.39 µg/mL (≈ 0.64 µM); in the assay on Ent. cloacae V-8, 1.56 µg/mL (≈ 2.56 µM).
Regarding `CC(=O)OCC1=C(C(=O)O)N2C(=O)C(NC(=O)/C(=N\OCc3csc(N)n3)c3csc(N)n3)[C@H]2SC1` (stereo partly drawn) [2(b), (Z)-7-{α-(2-amino-4-thiazolyl)-α-[(2-amino-4-thiazolyl)methoxyimino]acetamido}-3-acetoxymethyl-3-cephem-4-carboxylic acid], the MIC with Ps. aeruginosa IID 5142 is 25 µg/mL (≈ 45.2 µM); in the assay on Staph. aureus Terashima it was 3.13 µg/mL (≈ 5.65 µM); in assay [1], not above 0.2 µg/mL; in the assay with Staph. aureus ATCC 6538P, 1.56 µg/mL (≈ 2.82 µM); in the assay on E. coli Ebara (E. coli Ebara), not above 0.2 µg/mL; in the assay with Proteus morgani IID 602 (Proteus morgani IID 602), 0.39 µg/mL (≈ 0.704 µM). The MIC was 1.56 µg/mL (≈ 2.82 µM) in assay [2]; 1.56 µg/mL (≈ 2.82 µM) in the assay with Staph. aureus Smith; 0.39 µg/mL (≈ 0.704 µM) in assay [3]; 0.78 µg/mL (≈ 1.41 µM) in the assay on Serr. marcescens IID 620 (setting [4]); 3.13 µg/mL (≈ 5.65 µM) in the assay with Ent. cloacae V-8.
For `Nc1nc(CO/N=C(\C(=O)NC2C(=O)N3C(C(=O)[O-])=C(C[n+]4ccccc4)CSC23)c2csc(N)n2)cs1` (stereo not drawn) [Example 8, (Z)-7-{α-(2-amino-4-thiazolyl)-α-[(2-amino-4-thiazolyl)methoxyimino]acetamido}-3-(1-pyridiniummethyl)-3-cephem-4-carboxylate], the MIC is 3.13 µg/mL (≈ 5.47 µM) with Ps. aeruginosa IID 5142; 1.56 µg/mL (≈ 2.72 µM) in the assay on Staph. aureus Terashima; not above 0.2 µg/mL in [1]; 1.56 µg/mL (≈ 2.72 µM) in the assay on Staph. aureus ATCC 6538P; 0.78 µg/mL (≈ 1.36 µM) with E. coli Ebara (E. coli Ebara); 0.78 µg/mL (≈ 1.36 µM) in the assay with Proteus morgani IID 602 (Proteus morgani IID 602). Moreover, the MIC is 1.56 µg/mL (≈ 2.72 µM) in assay [2]; 0.78 µg/mL (≈ 1.36 µM) in the assay on Staph. aureus Smith; not above 0.2 µg/mL in [3]; 0.78 µg/mL (≈ 1.36 µM) in the assay on Serr. marcescens IID 620 (setting [4]); 6.25 µg/mL (≈ 10.9 µM) in the assay with Ent. cloacae V-8.
Turning to `NC(=O)c1cc[n+](CC2=C(C(=O)[O-])N3C(=O)C(NC(=O)/C(=N\OCc4csc(N)n4)c4csc(N)n4)C3SC2)cc1` (stereo not drawn) [Example 9, (Z)-7-{α-(2-amino-4-thiazolyl)-α-[(2-amino-4-thiazolyl)methoxyimino]acetamido}-3-(4-carbamoyl-1-pyridiniummethyl)-3-cephem-4-carboxylate], the MIC in the assay with Ps. aeruginosa IID 5142 was 6.25 µg/mL (≈ 10.2 µM); with Staph. aureus Terashima, 1.56 µg/mL (≈ 2.53 µM); in assay [1], not above 0.2 µg/mL; in the assay on Staph. aureus ATCC 6538P, 1.56 µg/mL (≈ 2.53 µM); in the assay on E. coli Ebara (E. coli Ebara), not above 0.2 µg/mL; in the assay with Proteus morgani IID 602 (Proteus morgani IID 602) it was 0.39 µg/mL (≈ 0.633 µM). In addition, the MIC in assay [2] was determined as 1.56 µg/mL (≈ 2.53 µM); in the assay on Staph. aureus Smith it was 1.56 µg/mL (≈ 2.53 µM); in assay [3], 0.39 µg/mL (≈ 0.633 µM); in the assay on Serr. marcescens IID 620 (setting [4]), 0.78 µg/mL (≈ 1.27 µM); with Ent. cloacae V-8, 3.13 µg/mL (≈ 5.08 µM).
For the compound `Nc1nc(CO/N=C(\C(=O)NC2C(=O)N3C(C(=O)[O-])=C(C[n+]4cccc(C(=O)NCC(=O)O)c4)CSC23)c2csc(N)n2)cs1` (stereo not drawn) [Example 20, (Z)-7-{α-(2-amino-4-thiazolyl)-α-[(2-amino-4-thiazolyl)methoxyimino]acetamido}-3-{3-[N-(carboxylatemethyl)carbamoyl]-1-pyridiniomethyl}-3-cephem-4-carboxylate mono-sodium salt], the MIC in the assay on Ps. aeruginosa IID 5142 is 25 µg/mL; in the assay on Staph. aureus Terashima, 12.5 µg/mL; in assay [1], 0.39 µg/mL; with Staph. aureus ATCC 6538P, 6.25 µg/mL; with E. coli Ebara (E. coli Ebara), 6.25 µg/mL; in the assay with Proteus morgani IID 602 (Proteus morgani IID 602), 1.56 µg/mL. Moreover, the MIC in assay [2] is 3.13 µg/mL; with Staph. aureus Smith it was 6.25 µg/mL; in [3], 1.56 µg/mL; with Serr. marcescens IID 620 (setting [4]), not above 0.2 µg/mL; in the assay on Ent. cloacae V-8, 12.5 µg/mL.
For `Nc1nc(CO/N=C(\C(=O)NC2C(=O)N3C(C(=O)[O-])=C(C[n+]4cccc(S(=O)(=O)O)c4)CSC23)c2csc(N)n2)cs1` (stereo not drawn) [Example 17, (Z)-7-{α-(2-amino-4-thiazolyl)-α-[(2-amino-4-thiazolyl)methoxyimino]acetamido}-3-(3-sulfonate-1-pyridiniomethyl)-3-cephem-4-carboxylate mono-sodium salt], the MIC was determined as 25 µg/mL with Ps. aeruginosa IID 5142; 12.5 µg/mL with Staph. aureus Terashima; 0.39 µg/mL in assay [1]; 6.25 µg/mL with Staph. aureus ATCC 6538P; 12.5 µg/mL with E. coli Ebara (E. coli Ebara); 1.56 µg/mL in the assay on Proteus morgani IID 602 (Proteus morgani IID 602). Moreover, the MIC in assay [2] came out at 3.13 µg/mL; with Staph. aureus Smith it was 6.25 µg/mL; in assay [3] it was 1.56 µg/mL; in the assay on Serr. marcescens IID 620 (setting [4]), 0.39 µg/mL; in the assay with Ent. cloacae V-8, 6.25 µg/mL.
With `Nc1nc(CO/N=C(\C(=O)NC2C(=O)N3C(C(=O)[O-])=C(C[n+]4ccc(CO)cc4)CS[C@H]23)c2csc(N)n2)cs1` (stereo partly drawn) [Example 15, (Z)-7-{α-(2-amino-4-thiazolyl)-α-[(2-amino-4-thiazolyl)methoxyimino]acetamido}-3-(4-hydroxymethyl-1-pyridiniomethyl)-3-cephem-4-carboxylate], the MIC is 6.25 µg/mL (≈ 10.4 µM) with Ps. aeruginosa IID 5142; 1.56 µg/mL (≈ 2.59 µM) in the assay on Staph. aureus Terashima; not above 0.2 µg/mL in [1]; 1.56 µg/mL (≈ 2.59 µM) in the assay with Staph. aureus ATCC 6538P; not above 0.2 µg/mL in the assay on E. coli Ebara (E. coli Ebara); 1.56 µg/mL (≈ 2.59 µM) with Proteus morgani IID 602 (Proteus morgani IID 602). Besides, the MIC in assay [2] was 1.56 µg/mL (≈ 2.59 µM); in the assay with Staph. aureus Smith, 1.56 µg/mL (≈ 2.59 µM); in assay [3], not above 0.2 µg/mL; in the assay with Serr. marcescens IID 620 (setting [4]), not above 0.2 µg/mL; with Ent. cloacae V-8 it was 3.13 µg/mL (≈ 5.19 µM).
